Measured values: publication PMC6155683, “Pharmacokinetics Studies of 12 Alkaloids in Rat Plasma after Oral Administration of Zuojin and Fan-Zuojin Formulas” (Molecules : A Journal of Synthetic Chemistry and Natural …, 2017)
Like-named read-outs stand apart in the source and are kept apart here.

Key:
[1] = Two-compartment model fitting of C–T curves (DAS 2.0); type: in vivo, rat
Excerpt: Double peaks in C–T curves were observed repeatedly in the PK study of ZJ and related TCM prescriptions, but explanations to the phenomenon were still ambiguous. Generally, possible reasons for the double peak phenomenon could be summarized as follows: (a) enterohepatic circulation; […] (c) irregular pattern of gastric emptying. […] Moreover, Tmax of the alkaloids after administration of ZJ extract were deferred from that of FZJ administration. […] It probably play a major role in the double peak phenomenon, since the GI motility can affect the drug absorption.

[2] = Stability of analytes in rat plasma under storage conditions; type: physicochemical; settings: n = 6; for Stability RE, 3 freeze-thaw cycles / Stability RE, 30 days at −20 °C: rat plasma; for Stability RE, processed samples' stability: room temperature 24 h
Experimental: The stabilities of analytes in plasma were assessed by analyzing the QC samples at three concentration levels under the following storage conditions: after three freeze (−20 °C)-thaw (room temperature) cycles; stored at −20 °C for 30 days, and comparing the results with those of freshly prepared QC samples. Stabilities of the processed samples at room temperature for 24 h were also assessed.

[3] = PK study of the 12 alkaloids in rat plasma after oral administration of ZJ and FZJ extract (LC–MS/MS); type: in vivo; settings: rat plasma; for AUC(0-t) / AUC(0-inf) / Cmax / MRT last / MRT inf / half-life / Csec (drug concentration of the secondary peak in C–T curve): mean ± SD, n = 6; for AUC(0-t): read-out: AUC0→t; for AUC(0-inf): read-out: AUC0→∞; for Cmax: read-out: Cmax; for MRT last: read-out: MRT0→t (converted); for MRT inf: read-out: MRT0→∞ (converted); for half-life: read-out: t1/2; for Tmax: read-out: Tmax (converted)
Experimental: The time schedule included 15 time-points and six rats were sampled at each time-point. All the rats were orally administered with ZJ extract (suspended in water) at a dose of 3.38 g/kg body weight (dosages of the 12 alkaloids were shown in Table S4), equivalent to crude drug dose of 12 g/kg body weight. Blood samples were collected from the suborbital vein of the rats at 10, 20, 30, 60, 90, 120, 180, 240, 300, 330, 360, 480, 720, 1440, 2160 min after administration, and centrifuged immediately at 5000 rpm for 10 min. The plasma samples were stored at −20 °C until analysis.
Similarly, the time schedule of other rats included 15 time-points and six rats were orally administered with FZJ extract at a dose of 3.76 g/kg body weight (also equivalent to crude drug dose of 12 g/kg body weight, Table S4). Blood samples were collected and treated as mentioned above in the PK study of ZJ extract.
PK parameters of the 12 alkaloids including AUC0→t, AUC0→∞, mean retention time (MRT0→t, MRT0→∞), and elimination half-life (t1/2) were calculated with non-compartmental method by DAS 2.0 software (Mathematical Pharmacology Professional Committee of China, Shanghai, China). Maximum plasma drug concentration (Cmax) and time to reach the maximum plasma drug concentration (Tmax) were observed directly from the detected C–T data. The results were expressed as arithmetic mean ± standard deviation (SD).

[4] = Dose modified systemic exposure (AUC0→∞/D, Cmax/D)
Experimental: Because the alkaloids content in ZJ and FZJ were no longer linear with the proportion of CR and EF after extraction process, AUC0→∞/D (ratio of AUC0→∞ and dose) and Cmax/D (ratio of Cmax and dose) were calculated to estimate the dose modified systemic exposure levels of the 12 alkaloids (Table 3). […] Physicochemical properties of these alkaloids had been calculated in silico to predict their human colon adenocarcinoma cell (Caco-2) permeability according to the three-property based rule (3PRule). Polar surface area (PSA), logarithm of the n-octanol/water distribution coefficient (LogD), molecular weight (MW), hydrogen bond donors (HBD), hydrogen bond acceptors (HBA), number of free rotatable bonds (NRB) and molar solubility (S) of the alkaloids were retrieved from SciFinder® (American Chemical Society).

Row | SMILES | AIC (Akaike's information criterion method), two-compartment model fitting ([1]; oral FZJ extract) | r^2 (correlation coefficient method), two-compartment model fitting ([1]; oral FZJ extract) | AIC (Akaike's information criterion method), two-compartment model fitting ([1]; oral ZJ extract) | r^2 (correlation coefficient method), two-compartment model fitting ([1]; oral ZJ extract) | Stability RE, 3 freeze-thaw cycles ([2]; high QC concentration) | Stability RE, 30 days at −20 °C ([2]; high QC concentration) | Stability RE, 3 freeze-thaw cycles ([2]; low QC concentration) | Stability RE, 30 days at −20 °C ([2]; low QC concentration) | Stability RE, 3 freeze-thaw cycles ([2]; medium QC concentration) | Stability RE, 30 days at −20 °C ([2]; medium QC concentration) | Stability RE, processed samples' stability ([2]; high QC concentration) | Stability RE, processed samples' stability ([2]; low QC concentration) | Stability RE, processed samples' stability ([2]; medium QC concentration) | AUC(0-t) ([3]; 3.38 g/kg, oral ZJ extract) | AUC(0-inf) ([3]; 3.38 g/kg, oral ZJ extract) | Cmax ([3]; 3.38 g/kg, oral ZJ extract) | MRT last ([3]; 3.38 g/kg, oral ZJ extract) | MRT inf ([3]; 3.38 g/kg, oral ZJ extract) | half-life ([3]; 3.38 g/kg, oral ZJ extract) | Tmax ([3]; 3.38 g/kg, oral ZJ extract) | further results
1 | O=C1NCCc2cc3c(cc21)OCO3 [noroxyhydrastinine] | 16.505 ± 12.486 | 0.802 ± 0.128 | 118.137 ± 17.623 | 0.313 ± 0.350 | −9.82% | −12.1% | −14.7% | −8.89% | 11.57% | −2.75% | −12.23% | −8.14% | −0.19% | 133 ± 18.5 ng·h/mL | 140 ± 17.8 ng·h/mL | 29.6 ± 15.2 ng/mL | 8.82 h | 11 h | 10.7 ± 2.82 h | 1.5 h | AUC(0-t) ([3]; 3.76 g/kg, oral FZJ extract): 4.95 ± 0.65 ng·h/mL; AUC(0-inf) ([3]; 3.76 g/kg, oral FZJ extract): 5.37 ± 0.73 ng·h/mL; Cmax ([3]; 3.76 g/kg, oral FZJ extract): 3.17 ± 1 ng/mL; MRT last ([3]; 3.76 g/kg, oral FZJ extract): 3.03 h; MRT inf ([3]; 3.76 g/kg, oral FZJ extract): 5.25 h; half-life ([3]; 3.76 g/kg, oral FZJ extract): 4.06 ± 2.93 h; Tmax ([3]; 3.76 g/kg, oral FZJ extract): 0.5 h; Tsec (time of the secondary peak in C–T curve) ([3]; oral ZJ extract): 300 min; Csec (drug concentration of the secondary peak in C–T curve) ([3]; oral ZJ extract): 16.29 ± 8.38 ng/mL; AUC0→∞/D (ratio of AUC0→∞ and dose) ([4]; oral FZJ extract): 268.50; Cmax/D (ratio of Cmax and dose) ([4]; oral FZJ extract): 158.50; AUC0→∞/D (ratio of AUC0→∞ and dose) ([4]; oral ZJ extract): 1687.47; Cmax/D (ratio of Cmax and dose) ([4]; oral ZJ extract): 357.11
2 | Cn1c(=O)n(CCC2(O)C(=O)Nc3ccccc32)c(=O)c2ccccc21 (stereo not drawn) [wuchuyuamide-I] | 66.844 ± 7.076 | 0.519 ± 0.407 | 35.057 ± 11.851 | 0.544 ± 0.140 | 0.37% | −1.38% | 18.91% | 14.46% | −14.69% | −10.79% | −10.58% | 15.1% | −14.07% | 11.5 ± 1.4 ng·h/mL | 12.8 ± 1.43 ng·h/mL | 3.45 ± 1.73 ng/mL | 3.86 h | 5.22 h | 3.64 ± 1.5 h | 1.5 h | AUC(0-t) ([3]; 3.76 g/kg, oral FZJ extract): 48.2 ± 8.86 ng·h/mL; AUC(0-inf) ([3]; 3.76 g/kg, oral FZJ extract): 50.1 ± 8.81 ng·h/mL; Cmax ([3]; 3.76 g/kg, oral FZJ extract): 10.7 ± 4.43 ng/mL; MRT last ([3]; 3.76 g/kg, oral FZJ extract): 5.77 h; MRT inf ([3]; 3.76 g/kg, oral FZJ extract): 6.89 h; half-life ([3]; 3.76 g/kg, oral FZJ extract): 4.92 ± 1.83 h; Tmax ([3]; 3.76 g/kg, oral FZJ extract): 0.5 h; Tsec (time of the secondary peak in C–T curve) ([3]; oral ZJ extract): 20 min; Csec (drug concentration of the secondary peak in C–T curve) ([3]; oral ZJ extract): 2.55 ± 0.38 ng/mL; AUC0→∞/D (ratio of AUC0→∞ and dose) ([4]; oral FZJ extract): 278.39; Cmax/D (ratio of Cmax and dose) ([4]; oral FZJ extract): 59.61; AUC0→∞/D (ratio of AUC0→∞ and dose) ([4]; oral ZJ extract): 172.57; Cmax/D (ratio of Cmax and dose) ([4]; oral ZJ extract): 46.62
